From US20040219512A1, “Screening methods for cataractogenic risk” (Pfizer Inc, priority 2003, published 2004)

How the values were obtained:
[1] = system: chloride channels on the lens; details: literature, Zhang, J. J. (1994); cited from earlier work
SRA 01/04 cells = details: concentrations of TEA greater than five mM
Description: Preparation of Lens Epithelial Cell Line Culture Cells from the cell line, SRA 01/04 (deposited in the National Institute of Bioscience and Human-Technology Agency of Industrial Science and Technology, Ibaraki, Japan, international deposit No. FERM BP-5454) were thawed and plated on the bottom of a 25 square centimeter tissue culture flask (Falcon™ Flask, BD Biosciences, Lincoln Park, N.J.) and grown in high-glucose DMEM supplemented with 15% of FBS (Invitrogen, Grand Island, N.Y.) and 1% of penicillin/streptomysin (Invitrogen) at 37° C. in 5% CO2 and 95% air environment. The medium was changed twice a week. When confluence of 90-100% was reached (about 7-14 days), the medium was removed from the culture flask and the cells on the bottoms were washed with one ml of trypsin-EDTA (0.05% trypsin and EDTA, Invitrogen). […]
Approximately 15 μl of the cell suspension was pipetted onto a glass coverslip (Warner Instruments, Hamden, Conn., USA) placed on the transparent bottoms of a recording chamber mounted on an inverted differential interference contrast microscope (Eclipse TE300, Nikon, Tokyo, Japan). Whole cell currents were measured under the whole-cell configuration at room temperature (24-26° C.) using a multiclamp 700A dual channel multi-purpose microelectrode amplifier (Axon Instruments, Foster City, Calif., USA). […]

Rodent lens explants = system: Rodent lens explants
Description: Rodent lenses were surgically removed and placed in tissue culture 199 (TC199) media (Invitrogen) supplemented with bicarbonate buffer with and without 10 mM TEA (Sigma Aldrich Co.). Darkfield photomicrographs of the cells were taken over a seven day period.

For `CC/C(=C(\c1ccccc1)c1ccc(OCCN(C)C)cc1)c1ccccc1` [tamoxifen], the “effect on chloride channels on the lens” value [1] is given as “blocks chloride channels on the lens”.

In the case of `CC[N+](CC)(CC)CC` [TEA, tetraethylammonium], the “additional current block at higher concentration” value (SRA 01/04 cells) was “no significant additional current block”, the “clouding of the lens compared with control” value (Rodent lens explants; 10 mM TEA in TC199 media, photomicrographs over seven days) was “increased clouding of the lens” and the “pixel intensity histogram of lens explants” value (Rodent lens explants; 10 mM TEA, imaged after five days in culture) was “rightward shift in the intensity histogram”.
